Data taken from PubChem BioAssay AID434938 (Broad Institute, 2010).
pEC50: −log10 of the molar value. Records with an inconclusive call do not appear. The source made the active and inactive calls.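 Rule for the calls: active = EC50 no greater than ten times the top concentration tested; inconclusive = flat fit with inhibition between 30% and 70%, or an invalid poor-quality fit; inactive = EC50 beyond ten times the top concentration.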

System: S. cerevisiae GRE-lacZ reporter, Hsp90 function, luminescence
Assay: GRE-lacZ reporter signal reduction in yeast, SAR follow-up, mechanism study for C. albicans Hsp90 inhibitor project, S. cerevisiae, luminescence (AID 434938)

Work on `O=C(Oc1c(Cl)cc(Cl)c2cccnc12)c1cccs1` yielded a pEC50 of 4.92.

Work on `O=c1c2cc(Br)ccc2nc(-c2cccc(C(F)(F)F)c2)n1O` yielded a pEC50 of 4.99.

`Cc1ccc(Nc2nc(N)c([N+](=O)[O-])c(N3CCC(C)CC3)n2)cc1C` gave a pEC50 of 5.00.

Molecule `CCOC(=O)c1c(-c2ccccc2Cl)cn2ccccc12` has a pEC50 of 4.78.

With `COc1ccc(-c2nnc(NC(=O)c3ccc(F)cc3)o2)cc1` the EC50 was > 26 µM (inactive).

In the case of `Cc1oc2c(F)c(F)c(F)c(F)c2c1S(=O)(=O)Nc1cccc(C(F)(F)F)c1`, the pEC50 was 5.05.

`Cc1ccc(C(=O)Nc2cccc(-c3cn4ccccc4n3)c2)cc1` was tested, and the EC50 was > 26 µM (inactive).

Work on `CCc1ccc2c(c1)/C(=C/C(=O)c1cccs1)C(=O)N2` yielded a pEC50 of 5.54.

`Cc1ccc(/C=C/C(=O)c2ccccc(=O)c2O)cc1C` gave a pEC50 of 5.07.

With `Clc1ccc2c(c1)C(c1cccs1)=NNC(c1cccnc1)=N2` the pEC50 was 4.57.

With `O=C(Nc1nc(-c2ccccn2)cs1)c1ccc(Br)s1` the pEC50 was 5.32.

With `CC(C)COCc1ccc(O)c2ncccc12` the EC50 was > 26 µM (inactive).

With `O=C(Nc1nnc(SCc2ccc(Cl)cc2)s1)c1ccc2ccccc2n1` the EC50 was > 26 µM (inactive).

`O=C(Nc1nnc(-c2ccc3c(c2)CCCC3)o1)c1ccc(Cl)cc1Cl` was tested, and the pEC50 was 5.67.

With `COc1ccc(-n2nc(C(=O)NCC(=O)N3CCN(c4ccccc4)CC3)c3ccccc3c2=O)c(OC)c1` the EC50 was > 26 µM (inactive).

With `O=C(Nc1sc2c(c1C(=O)c1ccc(Cl)cc1)CCCC2)c1cccnc1` the pEC50 was 4.82.

For `Cc1ccc(C(=O)c2coc3c2C(=O)C(=O)c2ccccc2-3)cc1`, the pEC50 was 5.12.

With `CCCC(=O)NC(c1ccccc1)c1ccc2cccnc2c1O` (centres undefined) the EC50 was > 26 µM (inactive).

With `O=C(Nc1nnc(CCc2ccccc2)s1)c1ccco1` the EC50 was > 26 µM (inactive).
